Structures can show the parent of a compound that is named as a salt.
System: patients hospitalized for acute heart failure (AHF)
Assay: Echocardiographic parameters (tissue Doppler echocardiography), phase II trial of 24 h istaroxime infusion
Type: in vivo, human
Design: E/e′ change from baseline to 24 h: dose or concentration left out as unconfirmed
Conditions: for A wave mean change from baseline / CI mean change from baseline / E wave mean change from baseline / E/A ratio mean change from baseline / E/e′ ratio mean change from baseline / EDV Index mean change from baseline / EDV mean change from baseline / ESV Index mean change from baseline / ESV mean change from baseline / IVC diameter mean change from baseline / LAA mean change from baseline / LAV mean change from baseline / LAVI mean change from baseline / LVEF mean change from baseline / PASP mean change from baseline / SVI mean change from baseline / S′ mean change from baseline / TAPSE mean change from baseline / e′ mean change from baseline: 1.0 μg/Kg/min; for E/e′ change from baseline to 24 h (primary endpoint): 1.0 μg/kg/min (cohort 2), mITT, hydrochloride
From the text: The measurement of one or more cardiac parameters disclosed herein can be measured by Echocardiography which may be performed on subjects according to international standards (see, for example, Lang R M et a I. J Am Soc Echocardiogr 2005; 18(12): 1440-63; Nagueh S F et al. Eur J Echocardiogr 2009; 10(2): 165-93; Evangelista A et a I. Eur J Echocardiogr 2008; 9(4):438-48).
In some embodiments, cardiac parameters can be measured as follows: • 1. Cardiac dimension measures: • a. Left ventricle end diastolic diameter (EDD): measured with M-mode echocardiography at the level of mitral valve (MV) leaflets from parasternal long axis view (PLAX) (normal range [N R]: 42-59 mm males and 39-53 mm females); • b. Left ventricle end systolic diameter (ESD): measured with M-mode echocardiography at the level of mitral valve (MV) leaflets from PLAX (N R: 25-35 mm): • c. Left ventricle end diastolic volume (EDV): measured with M-mode echocardiography at the level of mitral valve (MV) leaflets from PLAX (N R: 67-155 mL males and 56-104 mL females); • d. Left ventricle end systolic volume (ESV): measured with M-mode echocardiography at the level of mitral valve (MV) leaflets from PLAX (N R: 22-58 mL males and 19-49 mL females); • e. Left atrium diameter (LAD): measured at end-ventricular systole with M-mode echocardiography from PLAX. (N R: 30-40 mm males and 27-38 mm females) • f. Left atrium area (LAA): measured from apical four chamber view (NR: £20 cm2); and • g. Left atrium volume (LAV): derived from area-length measured from apical four chamber view (N R: 18-58 mL males and 22-52 mL females). • 2. Left ventricle diastolic function parameters: • a. E wave: measured from mitral valve pulsed wave Doppler, is the peak velocity of early filling. […] A wave: measured from mitral valve pulsed wave Doppler is the peak velocity of late atrial filling. Not evaluable in subjects with AF: • c. E wave deceleration time (EDT): measured from mitral valve pulsed wave Doppler represent the slope of the descending part of E wave; • d. E/A ratio: determines the type of diastolic filling pattern (normal E/A=1-2 and EDT=150-200 ms, abnormal relaxation E/A<1 and EDT>240 ms, pseudonormal E/A=0.8-1.5: restrictive E/A^32 and EDT <160 ms). Not evaluable in subjects with AF; • e. Ea: measured with tissue Doppler method at the lateral and septal side of the mitral annulus from apical four chamber view is the early diastolic velocity. The value has been calculated as the average between Ea lateral and Ea septal. (NR310 cm/s) (see Nagueh S F et al. Eur J Echocardiogr. 2009:10(2):165-93); • f. Aa: measured with tissue Doppler method at the lateral and septal side of the mitral annulus from apical four chamber view is the late atrial diastolic velocity. The value has been calculated as the average between Aa lateral and Aa septal. Not evaluable in subjects with AF; and • g. E/Ea ratio: this is a derived measure from E and Ea value. This is highly correlated with left ventricle filling pressure and with prognosis in subjects with HF. (NR: <13) (see Nagueh S F et al. supra). • 3. Left ventricle systolic function parameters: • a. Left ventricle ejection fraction (LVEF): measured with Simpson biplane method according to international recommendations from apical four chamber view and apical two chamber view. (NR ^355%) (see Lang R M et al. J Am Soc Echocardiogr. 2005:18(12): 1440-63); and • b. Sa: measured with tissue Doppler method at the lateral and septal side of the mitral annulus from apical four chamber view. The value has been calculated as the average between Sa lateral and Sa septal. […] Overall cardiac contraction parameters: • a. Stroke volume (SV): is a derived measure obtained with the application of Bernoulli's formula using the dimension of left ventricle outflow tract (LVOT) as diameter and LVOT time velocity integral as velocity. (NR>60 mL/beat); • b. Cardiac output (CO): is derived by the multiplication of SV× heart rate (HR) (NR: >4 L/min); • c. […]

[1] = 1.0 μg/kg/min, mean ± standard deviation

SMILES: C[C@]12CCC(=NOCCN)C[C@@H]1C(=O)C[C@@H]1[C@@H]2CC[C@]2(C)C(=O)CC[C@@H]12 [Istaroxime, (E,Z)-3-((2-aminoethoxy)imino)androstane-6,17-dione hydrochloride]
- A wave mean change from baseline (6 hours): 5.88 cm/s
- CI mean change from baseline (6 hours): 0.15 l/min/m^2
- E wave mean change from baseline (6 hours): -10.19 cm/s
- E/A ratio mean change from baseline (6 hours): −0.35
- E/e′ ratio mean change from baseline (6 hours): −2.05
- EDV Index mean change from baseline (6 hours): 0.64 ml/m^2
- EDV mean change from baseline (6 hours): 1.35 mL
- ESV Index mean change from baseline (6 hours): −2.42 ml/m^2
- ESV mean change from baseline (6 hours): -4.62 mL
- IVC diameter mean change from baseline (6 hours): −1.24 mm
- LAA mean change from baseline (6 hours): −1.03 cm^2
- LAV mean change from baseline (6 hours): -4.94 mL
- LAVI mean change from baseline (6 hours): −2.86 mL/m^2
- LVEF mean change from baseline (6 hours): 2.35%
- PASP mean change from baseline (6 hours): −2.60 mmHg
- SVI mean change from baseline (6 hours): 4.32 ml/beat/m^2
- S′ mean change from baseline (6 hours): 1.00 cm/s
- TAPSE mean change from baseline (6 hours): 1.56 mm
- e′ mean change from baseline (6 hours): -0.03 cm/s
- A wave mean change from baseline (24 hours): 9.00 cm/s
- CI mean change from baseline (24 hours): 0.15 l/min/m^2
- E wave mean change from baseline (24 hours): -14.06 cm/s
- E/A ratio mean change from baseline (24 hours): −0.65
- E/e′ ratio mean change from baseline (24 hours): −3.16
- EDV Index mean change from baseline (24 hours): −2.08 ml/m^2
- EDV mean change from baseline (24 hours): -3.67 mL
- ESV Index mean change from baseline (24 hours): −6.23 ml/m^2
- ESV mean change from baseline (24 hours): -11.39 mL
- IVC diameter mean change from baseline (24 hours): −2.23 mm
- LAA mean change from baseline (24 hours): −2.21 cm^2
- LAV mean change from baseline (24 hours): -12.94 mL
- LAVI mean change from baseline (24 hours): −7.32 mL/m^2
- LVEF mean change from baseline (24 hours): 3.82%
- PASP mean change from baseline (24 hours): −4.76 mmHg
- SVI mean change from baseline (24 hours): 5.49 ml/beat/m^2
- S′ mean change from baseline (24 hours): 0.81 cm/s
- TAPSE mean change from baseline (24 hours): 1.16 mm
- e′ mean change from baseline (24 hours): 0.10 cm/s
- A wave mean change from baseline (48 hours): 5.30 cm/s
- CI mean change from baseline (48 hours): 0.20 l/min/m^2
- E wave mean change from baseline (48 hours): -11.53 cm/s
- E/A ratio mean change from baseline (48 hours): −0.36
- E/e′ ratio mean change from baseline (48 hours): −2.21
- EDV Index mean change from baseline (48 hours): −1.86 ml/m^2
- EDV mean change from baseline (48 hours): -3.18 mL
- ESV Index mean change from baseline (48 hours): −4.46 ml/m^2
- ESV mean change from baseline (48 hours): -8.09 mL
- IVC diameter mean change from baseline (48 hours): −2.19 mm
- LAA mean change from baseline (48 hours): −0.94 cm^2
- LAV mean change from baseline (48 hours): -6.67 mL
- LAVI mean change from baseline (48 hours): −3.80 mL/m^2
- LVEF mean change from baseline (48 hours): 2.06%
- PASP mean change from baseline (48 hours): −3.00 mmHg
- SVI mean change from baseline (48 hours): 2.91 ml/beat/m^2
- S′ mean change from baseline (48 hours): 0.26 cm/s
- TAPSE mean change from baseline (48 hours): 0.31 mm
- e′ mean change from baseline (48 hours): 0.19 cm/s
- E/e′ change from baseline to 24 h (primary endpoint) (mean ± standard deviation): −3.16 ± 2.59
- E/e′ change from baseline to 24 h (primary endpoint) (mean ± standard deviation, listed as istaroxime): −3.16±2.59
- E/A ratio change at 24 h [1]: −0.65 ± 1.10
- LV ejection fraction change at 24 h [1]: 3.82 ± 4.14%
- LV end-diastolic volume index change at 24 h [1]: −2.08 ± 9.05 mL/m^2
- LV end-systolic volume index change at 24 h [1]: −6.23 ± 9.23 mL/m^2
- Left atrial area change at 24 h [1]: −2.21 ± 3.18 cm^2
- Left atrial volume index change at 24 h [1]: −7.32 ± 10.0 mL/m^2
- Stroke volume index change at 24 h [1]: 5.49 ± 4.98 mL/beat/m^2
- S′ change at 24 h [1]: 0.81 ± 1.01 cm/s
- E/e′ change from baseline to 24 h (per-protocol population): −3.19±2.63

Reference: patent US12697343B2, “Intravenous istaroxime for the treatment of acute heart failure” (Seismic Pharmaceuticals Operations LLC, priority 2021, dated 2026)
